Data reported in patent publication EP1089763B1, “AGENTS FOR SPECIFICALLY INHIBITING OSTEOCLASTIC BONE RESORPTION” (Dietsch, Peter, priority 1998, dated 1999).

Experiments:
[1] = system: Osteoklasten; conditions: not told
[2] = biological target: Carboanhydrase II (Homo sapiens, UniProt P00918); conditions: fluorescent DNSA-Carboanhydrase II complex, 1:1; read-out: Dissoziationskonstante KD; cited from earlier work
[3] = system: Nierenzellen; test: Uptake into kidney cells, DNSA fluorescence displacement (Abb. 2); conditions: Nierenzellen with Carboanhydrase II
Description: Das Maximum der Anregung der Fluoreszenz liegt bei einer Wellenlänge von 320 nm, das Maximum der Emission bei 470 nm. Diese Fluoreszenz läßt sich gut von der des ungebundenen DNSA unterscheiden, da diese grün und sehr viel schwächer ist. Sie hat ihr Emissionsmaximum bei 580 nm. Die Carboanhydrase bindet DNSA im stöchiometrischen Verhältnis 1:1.

[4] = system: Erythrozyten; format: cell-based; conditions: not told
[5] = system: Knochenresorption; test: Strontium excretion and tibia mineral content in strontium-loaded growing rats; format: in vivo, Ratten
Procedure: Wachsenden Ratten - 6 Wochen alt - wurden sechsmal in Abständen von drei Tagen jeweils 2 mg SrCl2 in physiologischer Kochsalzlösung subkutan injiziert. Die Tiere bauen das Strontium analog dem Calcium in den Knochen ein. Entsprechend der Rate des Knochenumbaus wird das Strontium über Harn und Fäces während eines längeren Zeitraums wieder ausgeschieden. Nach einer 14 tägigen Latenzzeit in der sie eine calciumarme Diät erhielten, wurden ihnen verschiedene Konzentrationen von 1 i.p. apliziert und die Ausscheidung des Strontiums atomabsorptionsspektroskopisch gemessen. Die Abb.
Nach Abschluß des Versuches wurden die Tibiae präpariert und deren Gehalt an Calcium, Strontium und Phosphat bestimmt.

[6] = biological target: Isoenzym Carboanhydrase II (Homo sapiens, UniProt P00918); test: Inhibition constant for carbonic anhydrase II; format: biochemical; conditions: Isoenzym Carboanhydrase II expressed in osteoclasts; read-out: Inhibitorkonstante KI
[7] = system: Osteoklasten; test: Bone resorption by osteoclasts settled on dentine slices (cell culture); format: cell-based
[8] = system: Knochenresorption; test: Serum calcium after injection of parathormone in rats; format: in vivo, Ratten; conditions: three days after a single dose of 10 mg/kg, Abb. 5
Description: Die Hemmung der Knochenresorption in Ratten, die mit 1 behandelt wurden, kann an der Änderung der Calciumkonzentration im Serum nach Injektion von Parathormon demonstriert werden (Abb. 5).

[9] = system: Knochenresooorption; test: Ovariectomised rats, osteoporosis model; format: in vivo, Ratten; conditions: several months

CN(C)c1cccc2c(S(N)(=O)=O)cccc12 [DNSA]
membrane permeability [1]: kann Zellmembranen passieren | Kd [2]: 240 nM

CCOc1ccc2nc(S(N)(=O)=O)sc2c1 [Ethoxzolamid, 6-Ethoxybenzothiaziol-2-sulfonamid, reference compound]
uptake into cells [3]: aufgenommen

NS(=O)(=O)c1ccc(CNC(=S)Nc2ccc(OC3OC(CO)C(O)C(O)C3O)cc2)cc1 [compound 1, N-α-D-Mannopyranosylphenyl-N'-p-amidosulfonylbenzylthioharnstoff]
uptake into cells [3]: nicht aufgenommen | permeability of the cell membrane [4]: teilweise für 1 durchlässig | Strontiumausscheidung ([5]; rats, various concentrations i.p., after SrCl2 loading and low-calcium diet, Abb. 3): Erniedrigung der Strontiumausscheidung | Gehalt an Calcium, Strontium und Phosphat (Tibiae) ([5]; versus control group, at the end of the experiment, Abb. 4): deutlich höhere Konzentration | Ki [6]: 800 nM | resorption ([7]; in the presence of osteoclast-activating hormones): keine Resorption mehr | resorption ([7]; osteoclasts on Dentinplättchen): hören sie auf zu resorbieren | knochenauflösende Wirkung von Parathormon (Calciumkonzentration im Serum) [8]: vollständig blockiert | Hemmwirkung auf die Knochenresooorption [9]: Hemmwirkung | Nebenwirkungen [9]: keine Nebenwirkungen
